# Reference: US7795300B2, “External preparation for skin” (Kuraray Co., Ltd., priority 2003, dated 2010)
# Where two headings read alike, the source gives them in different places.
# What was measured:
# Normal human melanocytes = assay: Inhibitory action on elongation of dendrites; type: cell-based
# Procedure: According to the following method, inhibitory action on elongation of dendrites was examined using human melanocytes.
# (Cell) Normal human melanocytes
# (Medium) Basic medium (Medium 154S) to which the following reagents were added
# (Reagent) Growth additive: bovine pituitary extract (BPE) (final concentration in the medium: 0.4% v/v), fetus bovine serum (FBS) (final concentration in the medium: 0.5% v/v), human recombinant basic fibroblast growth factor (rFGF-B) (final concentration in the medium: 3 ng/ml), hydrocortisone (final concentration in the medium: 0.18 μg/ml), insulin (final concentration in the medium: 5 μg/ml), transferrin (final concentration in the medium: 5 μg/ml), phorbol 12-myristate 13-acetate (PMA) (final concentration in the medium: 10 ng/ml), heparin (final concentration in the medium: 3 μg/ml), PSA solution (mixed solution at a concentration of penicillin: 50,000 Unit/ml, a concentration of streptomycin: 50 μg/ml, and a concentration of amphotericin B: 12.5 μg/ml. Added 1 ml thereof for 500 ml of the medium.) (Test Method)
# Normal human melanocytes were seeded (3,000 cells/well) into a 48-well microplate into which the above medium (198 μl/well) was poured, and cultured at 37° C. After 24 hours, Compound 1 (centaureidin) produced in Production Example 6 was dissolved in dimethyl sulfoxide (DMSO) at final concentrations in the medium of 0 mM (control), 0.1 mM, 0.5 mM, and 1 mM, to obtain sample solutions. To 1 μl of each of those sample solutions, 9 μl of the medium were added. 2 μl of each solution were added into each well of the microplate and culture was continued. After 24 hours from addition of the samples, the length of dendrites was observed.
# In the same manner as in Test Example 1, but using extracts produced in Production Examples 1 to 5, sample solutions were prepared so that the final concentration of Compound 1 (centaureidin) in the medium was 0.5 mM, to thereby examine inhibitory action on elongation of dendrites.
# In the same manner as in Test Example 1, Compounds 2 to 4 were further examined for inhibitory action on elongation of dendrites under the condition that the final concentration in the medium was 0.5 mM.
# melanoma B-16 cells = type: cell-based; settings: 48 hours
# Procedure: The effect of the combination of a compound (A) and 4-n-butyl resorcinol was studied using melanoma B-16 cells (obtained from Tomita Laboratory at Tohoku University, School of Medicine). MEM (modified Eagle's medium) supplemented with 15% FBS (fetal bovine serum) to which Compound 1 (centaureidin) and 4-butyl resorcinol at various concentrations were added was placed in each well of a microtiter plate. Melanoma B-16 cells were seeded into each well at a dose of 5×10^5 cells/ml and cultured for 48 hours. The cells were collected by means of centrifugal separation and washed twice with the medium, and then the color and number of the cells were judged using scores. Cells cultured without addition of both Compound 1 and 4-n-butyl resorcinol were used as a control, and judgment was carried out based on the following criteria: the color, score 0: the same as the control, score 1: slightly paler than the control, score 2: apparently paler than the control, score 3: cells were almost white, score 4: cells were white; the number of cells, score 0: almost all the cells were dead, score 1: nine-tenth of the cells were dead, score 2: about half the cells were dead, score 3: a few cells were dead, score 4: the number of cells was equal to that of the control. […] Such action is in good accordance with inhibitory action of Compound 1 on dendrites of melanocytes.
# [1] = normal human melanocytes, 24 hours
# [2] = centaureidin 0.1 mM, 4-n-butyl resorcinol 0 % by mass
# [3] = centaureidin 0.5 mM, 4-n-butyl resorcinol 0 % by mass
# [4] = Compounds 2 to 4, final concentration in the medium 0.5 mM, 24 hours
# [5] = centaureidin 0 mM, 4-n-butyl resorcinol 0.01 % by mass
# [6] = centaureidin 0 mM, 4-n-butyl resorcinol 0.1 % by mass
# [7] = centaureidin 0 mM, 4-n-butyl resorcinol 0.5 % by mass
smiles,measurement,setting,value
"COc1ccc(-c2oc3cc(O)c(OC)c(O)c3c(=O)c2OC)cc1O [Compound 1, 5,7-dihydroxy-3,6-dimethoxy-2-(5-hydroxy-4-methoxyphenyl)-4H-1-benzopyran-4-one]",Length of dendrite,"Normal human melanocytes; centaureidin 0.1 mM final concentration in medium, 24 hours after addition, control (0 mM) 140 ± 29",101 ± 15 μm
same,Length of dendrite,"Normal human melanocytes; centaureidin 0.5 mM final concentration in medium, 24 hours after addition, control (0 mM) 140 ± 29",26 ± 8 μm
same,Length of dendrite,"Normal human melanocytes; centaureidin 1 mM final concentration in medium, 24 hours after addition, control (0 mM) 140 ± 29",24 ± 6 μm
same,Concentration at which inhibitory action on elongation of dendrites can be confirmed,Normal human melanocytes; [1],at least 0.1 mM
same,Concentration at which inhibitory action on elongation of dendrites is particularly remarkable,Normal human melanocytes; [1],≥ 0.5 mM
same,Inhibitory action on elongation of dendrites (in words),"Normal human melanocytes; normal human melanocytes, 24 hours after addition",elongation of dendrites is inhibited
same,Color of cells,melanoma B-16 cells; [2],score 1
same,Number of cells,melanoma B-16 cells; [2],score 3
same,Color of cells,melanoma B-16 cells; [3],score 1
same,Number of cells,melanoma B-16 cells; [3],score 3
same,Effect on cell death (in words),melanoma B-16 cells; melanoma B-16 cells cultured with 4-n-butyl resorcinol,inhibits cell death
"CCOc1cc(-c2oc3cc(OC)c(OC)c(OCC)c3c(=O)c2OCC)ccc1OC [Compound 3, 3,5-diethoxy-6,7-dimethoxy-2-(5-ethoxy-4-methoxyphenyl)-4H-1-benzopyran-4-one]",Length of dendrite,Normal human melanocytes; [4],47 ± 28 μm
"COc1c(O)c(OC)c2oc(-c3cc(O)c(O)c(O)c3)c(OC)c(=O)c2c1O [Compound 2, 5,7-dihydroxy-3,6,8-trimethoxy-2-(3,4,5-trihydroxyphenyl)-4H-1-benzopyran-4-one]",Length of dendrite,Normal human melanocytes; [4],34 ± 19 μm
CCCCc1ccc(O)cc1O [4-n-butyl resorcinol],Color of cells,melanoma B-16 cells; [5],score 1
same,Number of cells,melanoma B-16 cells; [5],score 3
same,Color of cells,melanoma B-16 cells; [6],score 3
same,Number of cells,melanoma B-16 cells; [6],score 2
same,Color of cells,melanoma B-16 cells; [7],score 4
same,Number of cells,melanoma B-16 cells; [7],score 1
"COc1cc(OC)c(-c2oc3cc(OC)c(O)c(O)c3c(=O)c2OC)cc1O [Compound 4, 5,6-dihydroxy-3,7-dimethoxy-2-(5-hydroxy-2,4-dimethoxyphenyl)-4H-1-benzopyran-4-one]",Length of dendrite,Normal human melanocytes; [4],31 ± 22 μm
